Among the data in ChEMBL document CHEMBL4715760, “Balancing potency, metabolic stability and permeability in pyrrolopyrimidine-based EGFR inhibitors” (Eur J Med Chem, 2016) are inhibition values, retold here.

Structures are written as SMILES.

For assay [1], the target named is T1, Aurora kinase A (Homo sapiens) (UniProt O14965).
T1 sequence (whole entry): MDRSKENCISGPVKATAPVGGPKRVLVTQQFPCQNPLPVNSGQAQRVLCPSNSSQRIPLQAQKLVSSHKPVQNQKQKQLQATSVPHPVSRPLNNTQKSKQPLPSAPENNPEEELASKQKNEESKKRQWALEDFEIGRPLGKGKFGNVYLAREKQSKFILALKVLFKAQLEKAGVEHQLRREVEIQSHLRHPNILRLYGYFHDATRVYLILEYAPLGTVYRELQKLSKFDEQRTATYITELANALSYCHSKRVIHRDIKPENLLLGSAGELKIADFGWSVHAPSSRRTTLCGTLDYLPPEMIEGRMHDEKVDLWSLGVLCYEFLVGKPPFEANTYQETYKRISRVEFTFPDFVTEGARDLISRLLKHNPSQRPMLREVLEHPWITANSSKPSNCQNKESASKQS
The assay can be described thus: Inhibition of recombinant human full length His-tagged AURKA expressed in baculovirus expression system at 500 nM using Ser/Thr 01 as substrate incubated for 1 hr in presence of ATP at its Km concentration by Z'-LYTE assay relative to control.

Assay [2] has as its target Receptor tyrosine-protein kinase erbB-2 (Homo sapiens) (UniProt P04626). The assay can be described thus: Inhibition of recombinant human His-tagged ERBB2 (676 to 1255 residues) expressed in baculovirus expression system at 500 nM using Tyr 06 peptide as substrate incubated for 1 hr in presence of ATP at its Km concentration by Z'-LYTE assay relative to control.
Assay [3] deals with Tyrosine-protein kinase Fer (Homo sapiens) (UniProt P16591). Kind of assay: Inhibition of recombinant human GST-tagged FER (541 to 822 residues) expressed in baculovirus expression system at 500 nM using Tyr 05 peptide as substrate incubated for 1 hr in presence of ATP at its Km concentration by Z'-LYTE assay relative to control.
Assay [4] has as its target Fibroblast growth factor receptor 1 (Homo sapiens) (UniProt P11362). The assay can be described thus: Inhibition of recombinant human His-tagged FGFR1 (308 to 731 residues) expressed in baculovirus expression system at 500 nM using Tyr 04 peptide as substrate incubated for 1 hr in presence of ATP at its Km concentration by Z'-LYTE assay relative to control.
For assay [5], the target named is Vascular endothelial growth factor receptor 3 (Homo sapiens) (UniProt P35916). The assay can be described thus: Inhibition of recombinant human GST-tagged FLT4 (800 to 1297 residues) expressed in baculovirus expression system at 500 nM using Tyr 04 peptide as substrate incubated for 1 hr in presence of ATP at its Km concentration by Z'-LYTE assay relative to control.

The target in assay [6] is Tyrosine-protein kinase FRK (Homo sapiens) (UniProt P42685). Kind of assay: Inhibition of recombinant human GST-tagged full length FRK expressed in baculovirus expression system at 500 nM using Tyr 01 peptide as substrate incubated for 1 hr in presence of ATP at its Km concentration by Z'-LYTE assay relative to control.
Assay [7] addresses Glycogen synthase kinase-3 beta (Homo sapiens) (UniProt P49841). The assay can be described thus: Inhibition of recombinant full-length human His-tagged GSK3beta expressed in baculovirus expression system at 500 nM using Ser/Thr 09 as substrate incubated for 1 hr in presence of ATP at its Km concentration by Z'-LYTE assay relative to control.
Assay [8] addresses Mitogen-activated protein kinase 8 (Homo sapiens) (UniProt P45983). The assay can be described thus: Inhibition of recombinant human His tagged human MAPK8 expressed in baculovirus expression system at 500 nM using Ser/Thr 04 as substrate incubated for 1 hr in presence of 100 uM ATP by Z'-LYTE assay relative to control.
The target in assay [9] is T2, Serine/threonine-protein kinase Nek1 (Homo sapiens) (UniProt Q96PY6).
T2 sequence (whole entry): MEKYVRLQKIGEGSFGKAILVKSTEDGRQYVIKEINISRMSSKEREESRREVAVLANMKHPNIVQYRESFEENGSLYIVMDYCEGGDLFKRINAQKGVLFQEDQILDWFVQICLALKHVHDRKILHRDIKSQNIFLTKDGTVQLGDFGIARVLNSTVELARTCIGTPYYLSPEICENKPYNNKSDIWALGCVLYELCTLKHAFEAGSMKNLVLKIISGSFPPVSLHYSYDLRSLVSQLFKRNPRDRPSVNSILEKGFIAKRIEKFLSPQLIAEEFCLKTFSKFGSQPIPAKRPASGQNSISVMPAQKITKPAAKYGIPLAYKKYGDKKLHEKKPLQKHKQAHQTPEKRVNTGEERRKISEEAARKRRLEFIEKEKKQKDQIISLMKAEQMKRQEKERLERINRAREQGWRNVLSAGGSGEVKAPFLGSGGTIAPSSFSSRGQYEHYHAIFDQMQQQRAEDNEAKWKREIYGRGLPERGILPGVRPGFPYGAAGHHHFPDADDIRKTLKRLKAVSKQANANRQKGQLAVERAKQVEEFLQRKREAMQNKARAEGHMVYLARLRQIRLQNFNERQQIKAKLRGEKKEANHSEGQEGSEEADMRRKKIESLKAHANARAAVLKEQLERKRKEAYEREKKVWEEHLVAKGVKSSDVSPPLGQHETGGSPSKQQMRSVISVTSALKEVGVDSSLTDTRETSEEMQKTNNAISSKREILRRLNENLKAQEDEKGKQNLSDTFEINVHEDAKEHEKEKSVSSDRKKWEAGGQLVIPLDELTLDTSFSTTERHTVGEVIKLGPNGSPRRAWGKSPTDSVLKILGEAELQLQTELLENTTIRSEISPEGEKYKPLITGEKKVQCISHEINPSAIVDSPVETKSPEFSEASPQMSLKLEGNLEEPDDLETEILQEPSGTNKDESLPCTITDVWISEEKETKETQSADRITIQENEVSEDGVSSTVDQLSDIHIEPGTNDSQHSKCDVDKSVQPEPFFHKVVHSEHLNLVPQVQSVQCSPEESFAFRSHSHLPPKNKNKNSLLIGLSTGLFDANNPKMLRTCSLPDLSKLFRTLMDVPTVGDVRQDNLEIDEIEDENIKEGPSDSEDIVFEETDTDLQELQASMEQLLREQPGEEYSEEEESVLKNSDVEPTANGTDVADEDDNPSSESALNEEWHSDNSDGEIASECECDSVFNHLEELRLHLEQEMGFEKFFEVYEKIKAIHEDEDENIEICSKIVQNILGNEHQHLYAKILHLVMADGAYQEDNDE
Kind of assay: Inhibition of recombinant human GST-tagged NEK1 (1 to 505 residues) expressed in baculovirus expression system at 500 nM using Ser/Thr 07 as substrate incubated for 1 hr in presence of ATP at its Km concentration by Z'-LYTE assay relative to control.

The target of assay [10] is Protein kinase C theta type (Homo sapiens) (UniProt Q04759). Kind of assay: Inhibition of recombinant human His-tagged full length PRKCQ expressed in baculovirus expression system at 500 nM using Ser/Thr 07 as substrate incubated for 1 hr in presence of ATP at its Km concentration by Z'-LYTE assay relative to control.
Protein kinase C theta type (Homo sapiens), sequence (Q04759 whole entry, looked up): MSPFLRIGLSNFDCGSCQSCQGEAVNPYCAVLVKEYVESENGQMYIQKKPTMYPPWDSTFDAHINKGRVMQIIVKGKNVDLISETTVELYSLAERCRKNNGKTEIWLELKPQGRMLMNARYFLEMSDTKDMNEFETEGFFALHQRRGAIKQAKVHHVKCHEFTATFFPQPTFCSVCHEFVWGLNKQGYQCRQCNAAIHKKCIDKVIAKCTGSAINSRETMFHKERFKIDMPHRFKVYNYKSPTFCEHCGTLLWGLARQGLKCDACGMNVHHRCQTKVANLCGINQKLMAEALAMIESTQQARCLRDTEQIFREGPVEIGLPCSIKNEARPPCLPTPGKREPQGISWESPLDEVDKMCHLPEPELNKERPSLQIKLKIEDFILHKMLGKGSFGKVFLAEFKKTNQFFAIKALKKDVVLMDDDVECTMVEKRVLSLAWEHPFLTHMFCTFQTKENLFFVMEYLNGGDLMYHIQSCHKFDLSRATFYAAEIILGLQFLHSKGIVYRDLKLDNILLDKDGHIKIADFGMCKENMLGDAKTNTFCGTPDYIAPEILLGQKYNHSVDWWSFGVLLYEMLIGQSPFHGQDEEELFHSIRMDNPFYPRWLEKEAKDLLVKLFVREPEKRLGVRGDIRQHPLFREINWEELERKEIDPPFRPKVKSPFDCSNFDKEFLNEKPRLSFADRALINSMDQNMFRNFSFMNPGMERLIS

Vascular endothelial growth factor receptor 3 (Homo sapiens), sequence (P35916 whole entry, the tested form may be a part): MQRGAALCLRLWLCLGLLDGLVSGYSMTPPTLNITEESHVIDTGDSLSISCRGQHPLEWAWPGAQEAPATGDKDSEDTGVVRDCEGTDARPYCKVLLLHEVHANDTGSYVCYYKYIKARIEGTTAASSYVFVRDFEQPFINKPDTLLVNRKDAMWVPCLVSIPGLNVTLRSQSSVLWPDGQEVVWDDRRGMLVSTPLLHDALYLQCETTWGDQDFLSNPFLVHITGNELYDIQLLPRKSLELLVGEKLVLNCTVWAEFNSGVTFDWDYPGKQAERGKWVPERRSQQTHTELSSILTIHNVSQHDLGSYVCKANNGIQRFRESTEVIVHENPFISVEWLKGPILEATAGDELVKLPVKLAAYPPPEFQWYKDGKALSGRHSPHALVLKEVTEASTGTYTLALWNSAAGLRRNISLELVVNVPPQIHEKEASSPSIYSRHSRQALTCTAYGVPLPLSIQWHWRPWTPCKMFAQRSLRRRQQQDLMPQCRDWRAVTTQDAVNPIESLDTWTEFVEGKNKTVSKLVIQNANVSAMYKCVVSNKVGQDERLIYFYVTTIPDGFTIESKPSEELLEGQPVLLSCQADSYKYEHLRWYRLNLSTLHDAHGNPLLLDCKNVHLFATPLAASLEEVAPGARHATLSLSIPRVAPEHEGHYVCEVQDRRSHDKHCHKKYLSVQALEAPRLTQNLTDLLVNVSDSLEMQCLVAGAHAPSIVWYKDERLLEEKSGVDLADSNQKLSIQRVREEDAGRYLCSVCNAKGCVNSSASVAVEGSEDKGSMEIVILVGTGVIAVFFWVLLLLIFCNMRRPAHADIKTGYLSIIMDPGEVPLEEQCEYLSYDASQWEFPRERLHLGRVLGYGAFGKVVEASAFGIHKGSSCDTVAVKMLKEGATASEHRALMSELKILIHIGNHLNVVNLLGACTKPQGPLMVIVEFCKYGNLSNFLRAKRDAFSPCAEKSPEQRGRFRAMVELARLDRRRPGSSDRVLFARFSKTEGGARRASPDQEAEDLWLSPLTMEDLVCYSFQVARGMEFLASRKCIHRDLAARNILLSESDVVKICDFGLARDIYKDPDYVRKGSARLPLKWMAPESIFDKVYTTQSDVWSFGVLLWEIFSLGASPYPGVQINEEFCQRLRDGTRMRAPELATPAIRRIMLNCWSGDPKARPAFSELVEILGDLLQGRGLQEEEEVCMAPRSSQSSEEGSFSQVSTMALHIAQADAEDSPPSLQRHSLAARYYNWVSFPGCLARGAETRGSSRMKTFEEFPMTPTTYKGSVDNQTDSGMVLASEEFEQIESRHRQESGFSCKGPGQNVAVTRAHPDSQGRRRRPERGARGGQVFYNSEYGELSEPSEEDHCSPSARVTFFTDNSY
Tyrosine-protein kinase FRK (Homo sapiens), sequence (P42685 whole entry): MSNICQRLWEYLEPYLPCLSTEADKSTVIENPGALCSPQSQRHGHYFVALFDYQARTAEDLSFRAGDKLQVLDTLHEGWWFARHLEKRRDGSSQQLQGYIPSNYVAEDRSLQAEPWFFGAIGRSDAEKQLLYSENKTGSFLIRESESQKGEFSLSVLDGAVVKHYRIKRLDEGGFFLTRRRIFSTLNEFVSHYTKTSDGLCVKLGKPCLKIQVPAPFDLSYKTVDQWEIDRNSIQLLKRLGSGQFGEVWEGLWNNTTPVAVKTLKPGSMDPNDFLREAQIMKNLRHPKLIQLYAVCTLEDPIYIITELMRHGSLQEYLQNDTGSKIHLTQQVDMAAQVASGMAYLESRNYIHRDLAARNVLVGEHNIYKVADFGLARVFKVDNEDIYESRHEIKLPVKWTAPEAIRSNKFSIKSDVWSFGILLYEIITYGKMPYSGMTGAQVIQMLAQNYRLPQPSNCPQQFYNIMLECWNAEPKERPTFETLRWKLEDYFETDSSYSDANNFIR
Glycogen synthase kinase-3 beta (Homo sapiens), sequence (P49841 whole entry, looked up): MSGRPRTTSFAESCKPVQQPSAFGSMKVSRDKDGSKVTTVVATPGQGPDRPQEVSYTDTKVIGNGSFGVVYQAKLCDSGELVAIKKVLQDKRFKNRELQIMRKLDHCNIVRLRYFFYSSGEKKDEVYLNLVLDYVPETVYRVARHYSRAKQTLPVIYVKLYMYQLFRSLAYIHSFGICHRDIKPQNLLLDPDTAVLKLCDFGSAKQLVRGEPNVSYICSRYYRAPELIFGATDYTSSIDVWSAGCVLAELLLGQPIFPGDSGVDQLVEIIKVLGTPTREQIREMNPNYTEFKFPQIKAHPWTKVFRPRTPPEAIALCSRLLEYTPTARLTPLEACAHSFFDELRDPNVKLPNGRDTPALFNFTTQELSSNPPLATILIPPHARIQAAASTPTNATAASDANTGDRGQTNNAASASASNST
Receptor tyrosine-protein kinase erbB-2 (Homo sapiens), sequence (P04626 whole entry, the tested form may be a part): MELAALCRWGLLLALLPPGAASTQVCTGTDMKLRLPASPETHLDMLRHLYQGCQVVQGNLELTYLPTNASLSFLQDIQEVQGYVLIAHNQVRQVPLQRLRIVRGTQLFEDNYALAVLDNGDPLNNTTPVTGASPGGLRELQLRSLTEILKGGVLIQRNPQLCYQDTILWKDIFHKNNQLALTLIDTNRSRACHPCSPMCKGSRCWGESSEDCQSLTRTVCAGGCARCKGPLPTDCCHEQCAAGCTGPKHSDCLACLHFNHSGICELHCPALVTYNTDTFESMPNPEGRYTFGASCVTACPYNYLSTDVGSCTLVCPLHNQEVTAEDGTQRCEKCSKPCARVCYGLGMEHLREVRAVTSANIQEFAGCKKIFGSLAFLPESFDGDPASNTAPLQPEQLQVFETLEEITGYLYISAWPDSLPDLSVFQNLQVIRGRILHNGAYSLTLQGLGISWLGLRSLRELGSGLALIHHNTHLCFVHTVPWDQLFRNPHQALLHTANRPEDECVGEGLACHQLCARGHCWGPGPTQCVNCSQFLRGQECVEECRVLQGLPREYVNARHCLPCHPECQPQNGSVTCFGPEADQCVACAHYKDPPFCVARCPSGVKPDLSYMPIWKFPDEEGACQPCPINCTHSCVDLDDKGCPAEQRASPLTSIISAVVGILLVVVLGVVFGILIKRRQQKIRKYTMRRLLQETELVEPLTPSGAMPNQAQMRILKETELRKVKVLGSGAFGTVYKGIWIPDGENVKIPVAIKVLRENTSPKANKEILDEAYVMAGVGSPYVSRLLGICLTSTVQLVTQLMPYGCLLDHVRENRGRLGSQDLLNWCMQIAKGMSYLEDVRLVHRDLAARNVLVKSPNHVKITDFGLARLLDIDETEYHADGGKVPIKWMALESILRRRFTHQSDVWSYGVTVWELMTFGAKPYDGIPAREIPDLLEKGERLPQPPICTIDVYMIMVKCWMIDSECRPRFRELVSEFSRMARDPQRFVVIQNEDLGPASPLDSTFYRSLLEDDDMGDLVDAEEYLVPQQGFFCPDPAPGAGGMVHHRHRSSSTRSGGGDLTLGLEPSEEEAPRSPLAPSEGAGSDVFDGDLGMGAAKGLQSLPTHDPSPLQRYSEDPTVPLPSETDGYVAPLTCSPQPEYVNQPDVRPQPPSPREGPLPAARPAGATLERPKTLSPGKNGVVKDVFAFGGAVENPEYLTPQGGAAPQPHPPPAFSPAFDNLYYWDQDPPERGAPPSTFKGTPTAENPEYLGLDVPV
Fibroblast growth factor receptor 1 (Homo sapiens), sequence (P11362 22-822 limits assumed): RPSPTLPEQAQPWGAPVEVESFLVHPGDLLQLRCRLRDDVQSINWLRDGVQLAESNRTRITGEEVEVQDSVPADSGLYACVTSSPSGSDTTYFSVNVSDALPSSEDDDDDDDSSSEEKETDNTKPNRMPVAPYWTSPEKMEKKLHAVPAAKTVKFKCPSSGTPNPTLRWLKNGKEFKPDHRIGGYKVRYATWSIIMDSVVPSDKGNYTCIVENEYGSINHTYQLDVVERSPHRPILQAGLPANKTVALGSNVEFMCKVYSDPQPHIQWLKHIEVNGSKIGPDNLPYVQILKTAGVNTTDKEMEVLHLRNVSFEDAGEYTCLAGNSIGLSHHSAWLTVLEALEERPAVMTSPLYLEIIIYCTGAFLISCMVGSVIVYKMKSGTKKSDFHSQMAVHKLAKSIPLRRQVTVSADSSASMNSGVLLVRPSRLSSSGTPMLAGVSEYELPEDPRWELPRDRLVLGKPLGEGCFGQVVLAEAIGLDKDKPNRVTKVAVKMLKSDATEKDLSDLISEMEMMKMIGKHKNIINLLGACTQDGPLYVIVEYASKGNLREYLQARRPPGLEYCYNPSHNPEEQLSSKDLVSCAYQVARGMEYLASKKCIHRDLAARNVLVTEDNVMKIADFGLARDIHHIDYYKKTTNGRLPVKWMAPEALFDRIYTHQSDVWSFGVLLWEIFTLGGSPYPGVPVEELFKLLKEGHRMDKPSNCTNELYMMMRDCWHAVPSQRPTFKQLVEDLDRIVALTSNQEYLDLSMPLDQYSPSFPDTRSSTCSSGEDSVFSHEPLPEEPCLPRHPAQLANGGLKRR

By inhibition is commonly meant the drop in the measured response relative to a control, in per cent. Consider `C#Cc1cccc(Nc2ncnc3cc(OCCOC)c(OCCOC)cc23)c1` [ERLOTINIB], for which the inhibition in assay [1] was 20%; in [2], 52%; in [3], -1%; in assay [4], -4%; in assay [5] it was 44%; in assay [6] it was 16%. The inhibition in assay [7] was -8%; in [8], 32%; in assay [9] it was -8%; in [10] it was -4%.
Turning to `COc1ccccc1-c1cc2c(N[C@H](CO)c3ccccc3)ncnc2[nH]1`, the inhibition in assay [1] worked out at 9%; in assay [2], 53%; in assay [3], 7%; in assay [4] it was 6%; in [5] it was 12%; in assay [6], 36%. The inhibition came out at 6% in assay [7], 7% in [8], 1% in assay [9] and 5% in [10].
For the compound `CCOc1ccccc1-c1cc2c(N[C@H](CO)c3ccccc3)ncnc2[nH]1`, the inhibition in assay [1] is -2%; in assay [2], 35%; in [3] it was 12%; in assay [4], 3%; in assay [5] it was 21%; in assay [6], 32%. Also, the inhibition in [7] is 13%; in [8], 17%; in assay [9] it was 8%; in assay [10], 2%.
Take `CN(C)CCNCc1ccc(-c2cc3c(N[C@H](CO)c4ccccc4)ncnc3[nH]2)cc1F`: the inhibition in assay [1] came to 3%; in [2] it was 58%; in [3] it was 7%; in assay [4], 9%; in assay [5], 27%; in [6], 49%. In addition, the inhibition in [7] was 8%; in [8], 19%; in assay [9], 15%; in assay [10] it was 1%.
`OC[C@@H](Nc1ncnc2[nH]c(-c3ccccc3)cc12)c1ccccc1`: the inhibition in [1] is 19%; in assay [2] it was 53%; in [3] it was 6%; in assay [4], 16%; in [5], 6%; in assay [6], 33%. Further, the inhibition came out at 8% in assay [7], 0% in assay [8], 0% in [9] and 12% in assay [10].
Take `OCC[C@@H](Nc1ncnc2[nH]c(-c3ccccc3)cc12)c1ccccc1`: the inhibition in [1] was -3%; in assay [2], 36%; in assay [3], 10%; in assay [4], 0%; in [5], 20%; in [6], 14%. Besides, the inhibition amounted to 8% in [7], 27% in assay [8], 13% in assay [9] and 5% in assay [10].
